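Tested at 5 concentrations; 48 h exposure; 96-well plates; endpoints linearly interpolated, else capped at highest concentration. The concentration for full growth arrest is given as TGI.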

The subject of one assay is PC-3 prostate. As to the kind of experiment: NCI tumour cell line growth inhibition, 48 h.
In turn, `C=C(C)C1=CCC[C@]2(C1)N=C(OC)[C@@H](C(C)C)N=C2OC` returned a TGI above 100 µM.
For `CCSc1[nH]c(NC(=S)NC(=O)c2ccccc2Cl)c(C(N)=O)c1C(N)=O`, the TGI is above 10 µM.
The compound `Clc1ccc(NCc2nnc(CCCCCCCCc3nnc(CNc4ccc(Cl)cc4)o3)o2)cc1` showed a TGI above 100 µM.
`Cc1nc2ccccc2n1COC(Cn1ccnc1)c1ccc(Cl)cc1Cl` (centres undefined): the TGI is above 100 µM.
On the same count and under the same terms, the value for `Cc1cc(=O)[nH]c(-n2[nH]c(C)c(CCO)c2=O)n1` was above 100 µM; that for `COC(=O)[C@@H]1CN(C(C)=O)C(=O)N1` was above 100 µM.
Still for that read-out and setting: then `NN(CC(=O)O)CC(=O)O`, with above 100 µM; and `O=C([O-])C[n+]1ccccc1`, with above 100 µM.

The test system of a further assay is SF-539 CNS. Put plainly: NCI tumour cell line growth inhibition, 48 h.
In turn, `CNc1ncnc2c1ncn2C1C=CC(COS(N)(=O)=O)C1` (centres undefined) registered a TGI above 100 µM.
Turning to `COC1=C(OC)C(=O)C(Cc2c(Cl)nc3sc(C)cn23)=C(C)C1=O`, the TGI is 34.6 µM.
`O=C(CN1CCCCC1)Nc1ccc2sc3ccccc3c(=O)c2n1`: the TGI worked out at 31.6 µM.
Same read-out and setting: the value for `CC(C)=CCC/C(C)=C/CC/C(C)=C/CC/C(C)=C/C=C/C=C(\C)CC/C=C(\C)CC/C=C(\C)CCC=C(C)C` was above 100 µM; that for `C=C(C)C1=CCC[C@]2(C1)N=C(OC)[C@@H](C(C)C)N=C2OC` was above 100 µM.
Still for that read-out and setting: then `Cc1nc2ccccc2n1COC(Cn1ccnc1)c1ccc(Cl)cc1Cl` (centres undefined), with above 100 µM.
With `Cc1cc(=O)[nH]c(-n2[nH]c(C)c(CCO)c2=O)n1`, the TGI is above 100 µM.
For `COC(=O)[C@@H]1CN(C(C)=O)C(=O)N1`, the TGI was above 100 µM.
For `NN(CC(=O)O)CC(=O)O`, the TGI is above 100 µM.
`O=C([O-])C[n+]1ccccc1` gave a TGI above 100 µM.

For another assay, the system named is SK-MEL-2 melanoma. As to the kind of experiment: NCI tumour cell line growth inhibition, 48 h.
On to `CNc1ncnc2c1ncn2C1C=CC(COS(N)(=O)=O)C1` (centres undefined), for which the TGI is above 100 µM.
In turn, `COC1=C(OC)C(=O)C(Cc2c(Cl)nc3sc(C)cn23)=C(C)C1=O` registered a TGI of 76.9 µM.
In turn, `O=C(CN1CCCCC1)Nc1ccc2sc3ccccc3c(=O)c2n1` displayed a TGI of 41 µM.
Same read-out and setting: the value for `CC(C)=CCC/C(C)=C/CC/C(C)=C/CC/C(C)=C/C=C/C=C(\C)CC/C=C(\C)CC/C=C(\C)CCC=C(C)C` was above 100 µM.
`C=C(C)C1=CCC[C@]2(C1)N=C(OC)[C@@H](C(C)C)N=C2OC` displayed a TGI above 100 µM.
`Clc1ccc(NCc2nnc(CCCCCCCCc3nnc(CNc4ccc(Cl)cc4)o3)o2)cc1` had a TGI above 100 µM.
For `Cc1nc2ccccc2n1COC(Cn1ccnc1)c1ccc(Cl)cc1Cl` (centres undefined), the TGI was above 100 µM.
Still for that read-out and setting: the value for `Cc1cc(=O)[nH]c(-n2[nH]c(C)c(CCO)c2=O)n1` was above 100 µM; that for `COC(=O)[C@@H]1CN(C(C)=O)C(=O)N1` was above 100 µM.
For `NN(CC(=O)O)CC(=O)O`, the TGI was above 100 µM.
With `O=C([O-])C[n+]1ccccc1`, the TGI is above 100 µM.

A further assay deals with SK-OV-3 ovarian. Put plainly: NCI tumour cell line growth inhibition, 48 h.
`CNc1ncnc2c1ncn2C1C=CC(COS(N)(=O)=O)C1` (centres undefined) showed a TGI above 100 µM.
For `COC1=C(OC)C(=O)C(Cc2c(Cl)nc3sc(C)cn23)=C(C)C1=O`, the TGI came out at 32 µM.
`O=C(CN1CCCCC1)Nc1ccc2sc3ccccc3c(=O)c2n1`: the TGI was found to be 48.9 µM.
As to `CC(C)=CCC/C(C)=C/CC/C(C)=C/CC/C(C)=C/C=C/C=C(\C)CC/C=C(\C)CC/C=C(\C)CCC=C(C)C`, the TGI was above 100 µM.
Compound `C=C(C)C1=CCC[C@]2(C1)N=C(OC)[C@@H](C(C)C)N=C2OC` returned a TGI above 100 µM.
In turn, `CCSc1[nH]c(NC(=S)NC(=O)c2ccccc2Cl)c(C(N)=O)c1C(N)=O` yielded a TGI above 10 µM.
`Clc1ccc(NCc2nnc(CCCCCCCCc3nnc(CNc4ccc(Cl)cc4)o3)o2)cc1` registered a TGI above 100 µM.
The same measure, in the same setting: then `Cc1cc(=O)[nH]c(-n2[nH]c(C)c(CCO)c2=O)n1`, with above 100 µM; and `COC(=O)[C@@H]1CN(C(C)=O)C(=O)N1`, with above 100 µM; and `NN(CC(=O)O)CC(=O)O`, with above 100 µM.
In the case of `O=C([O-])C[n+]1ccccc1`, the TGI was above 100 µM.

In a further assay the test system is SN12C renal. Put plainly: NCI tumour cell line growth inhibition, 48 h.
In turn, `CNc1ncnc2c1ncn2C1C=CC(COS(N)(=O)=O)C1` (centres undefined) returned a TGI above 100 µM.
The same measure, in the same setting: then `COC1=C(OC)C(=O)C(Cc2c(Cl)nc3sc(C)cn23)=C(C)C1=O`, with 30.5 µM; and `O=C(CN1CCCCC1)Nc1ccc2sc3ccccc3c(=O)c2n1`, with 68.3 µM; and `CC(C)=CCC/C(C)=C/CC/C(C)=C/CC/C(C)=C/C=C/C=C(\C)CC/C=C(\C)CC/C=C(\C)CCC=C(C)C`, with above 55.3 µM.
The compound `C=C(C)C1=CCC[C@]2(C1)N=C(OC)[C@@H](C(C)C)N=C2OC` registered a TGI above 100 µM.
`CCSc1[nH]c(NC(=S)NC(=O)c2ccccc2Cl)c(C(N)=O)c1C(N)=O` yielded a TGI above 10 µM.
Take `Clc1ccc(NCc2nnc(CCCCCCCCc3nnc(CNc4ccc(Cl)cc4)o3)o2)cc1`: the TGI was above 100 µM.
The same measure, in the same setting: then `Cc1nc2ccccc2n1COC(Cn1ccnc1)c1ccc(Cl)cc1Cl` (centres undefined), with above 100 µM; and `Cc1cc(=O)[nH]c(-n2[nH]c(C)c(CCO)c2=O)n1`, with above 100 µM; and `COC(=O)[C@@H]1CN(C(C)=O)C(=O)N1`, with above 100 µM.
`NN(CC(=O)O)CC(=O)O`: the TGI is above 100 µM.
`O=C([O-])C[n+]1ccccc1` yielded a TGI above 100 µM.

A further assay has as its system SR leukemia. Put plainly: NCI tumour cell line growth inhibition, 48 h.
In turn, `CNc1ncnc2c1ncn2C1C=CC(COS(N)(=O)=O)C1` (centres undefined) registered a TGI above 100 µM.
`COC1=C(OC)C(=O)C(Cc2c(Cl)nc3sc(C)cn23)=C(C)C1=O`: the TGI came out at 51 µM.
On the same count and under the same terms, then `O=C(CN1CCCCC1)Nc1ccc2sc3ccccc3c(=O)c2n1`, with above 100 µM; and `CCSc1[nH]c(NC(=S)NC(=O)c2ccccc2Cl)c(C(N)=O)c1C(N)=O`, with above 10 µM.
`Clc1ccc(NCc2nnc(CCCCCCCCc3nnc(CNc4ccc(Cl)cc4)o3)o2)cc1` yielded a TGI above 100 µM.
`Cc1nc2ccccc2n1COC(Cn1ccnc1)c1ccc(Cl)cc1Cl` (centres undefined) came in with a TGI above 100 µM.

The test system of a further assay is SW-620 colon. As to the kind of experiment: NCI tumour cell line growth inhibition, 48 h.
`CNc1ncnc2c1ncn2C1C=CC(COS(N)(=O)=O)C1` (centres undefined) came in with a TGI above 100 µM.
`COC1=C(OC)C(=O)C(Cc2c(Cl)nc3sc(C)cn23)=C(C)C1=O` gave a TGI of 47.8 µM.
Consider `O=C(CN1CCCCC1)Nc1ccc2sc3ccccc3c(=O)c2n1`, for which the TGI came out at 31.4 µM.
Still for that read-out and setting: then `CC(C)=CCC/C(C)=C/CC/C(C)=C/CC/C(C)=C/C=C/C=C(\C)CC/C=C(\C)CC/C=C(\C)CCC=C(C)C`, with above 100 µM; and `C=C(C)C1=CCC[C@]2(C1)N=C(OC)[C@@H](C(C)C)N=C2OC`, with above 100 µM; and `CCSc1[nH]c(NC(=S)NC(=O)c2ccccc2Cl)c(C(N)=O)c1C(N)=O`, with above 10 µM.
Regarding `Cc1nc2ccccc2n1COC(Cn1ccnc1)c1ccc(Cl)cc1Cl` (centres undefined), the TGI is above 100 µM.
`Cc1cc(=O)[nH]c(-n2[nH]c(C)c(CCO)c2=O)n1` returned a TGI above 100 µM.
The same measure, in the same setting: then `COC(=O)[C@@H]1CN(C(C)=O)C(=O)N1`, with above 100 µM; and `NN(CC(=O)O)CC(=O)O`, with above 100 µM; and `O=C([O-])C[n+]1ccccc1`, with above 100 µM.

The next assay relates to T-47D breast. Put plainly: NCI tumour cell line growth inhibition, 48 h.
Take `CNc1ncnc2c1ncn2C1C=CC(COS(N)(=O)=O)C1` (centres undefined): the TGI was above 100 µM.
The compound `COC1=C(OC)C(=O)C(Cc2c(Cl)nc3sc(C)cn23)=C(C)C1=O` showed a TGI above 100 µM.
For `O=C(CN1CCCCC1)Nc1ccc2sc3ccccc3c(=O)c2n1`, the TGI is above 100 µM.
Still for that read-out and setting: the value for `CC(C)=CCC/C(C)=C/CC/C(C)=C/CC/C(C)=C/C=C/C=C(\C)CC/C=C(\C)CC/C=C(\C)CCC=C(C)C` was above 100 µM; that for `C=C(C)C1=CCC[C@]2(C1)N=C(OC)[C@@H](C(C)C)N=C2OC` was above 100 µM; that for `CCSc1[nH]c(NC(=S)NC(=O)c2ccccc2Cl)c(C(N)=O)c1C(N)=O` was above 10 µM.
As to `Clc1ccc(NCc2nnc(CCCCCCCCc3nnc(CNc4ccc(Cl)cc4)o3)o2)cc1`, the TGI was above 100 µM.
On the same count and under the same terms, then `Cc1nc2ccccc2n1COC(Cn1ccnc1)c1ccc(Cl)cc1Cl` (centres undefined), with above 100 µM; and `Cc1cc(=O)[nH]c(-n2[nH]c(C)c(CCO)c2=O)n1`, with above 100 µM.
The same measure, in the same setting: the value for `COC(=O)[C@@H]1CN(C(C)=O)C(=O)N1` was above 100 µM.
For the compound `NN(CC(=O)O)CC(=O)O`, the TGI was above 100 µM.
Turning to `O=C([O-])C[n+]1ccccc1`, the TGI was above 100 µM.

For a further assay, the system named is TK-10 renal. Put plainly: NCI tumour cell line growth inhibition, 48 h.
The compound `COC1=C(OC)C(=O)C(Cc2c(Cl)nc3sc(C)cn23)=C(C)C1=O` returned a TGI of 31.7 µM.
The compound `O=C(CN1CCCCC1)Nc1ccc2sc3ccccc3c(=O)c2n1` returned a TGI of 50.4 µM.
The compound `CC(C)=CCC/C(C)=C/CC/C(C)=C/CC/C(C)=C/C=C/C=C(\C)CC/C=C(\C)CC/C=C(\C)CCC=C(C)C` showed a TGI above 74.3 µM.
Consider `C=C(C)C1=CCC[C@]2(C1)N=C(OC)[C@@H](C(C)C)N=C2OC`, for which the TGI is above 100 µM.
For `CCSc1[nH]c(NC(=S)NC(=O)c2ccccc2Cl)c(C(N)=O)c1C(N)=O`, the TGI is above 10 µM.
Take `Clc1ccc(NCc2nnc(CCCCCCCCc3nnc(CNc4ccc(Cl)cc4)o3)o2)cc1`: the TGI was above 100 µM.
`Cc1nc2ccccc2n1COC(Cn1ccnc1)c1ccc(Cl)cc1Cl` (centres undefined) showed a TGI above 100 µM.
`Cc1cc(=O)[nH]c(-n2[nH]c(C)c(CCO)c2=O)n1` gave a TGI above 100 µM.
`COC(=O)[C@@H]1CN(C(C)=O)C(=O)N1`: the TGI is above 100 µM.
In turn, `NN(CC(=O)O)CC(=O)O` gave a TGI above 100 µM.
Take `O=C([O-])C[n+]1ccccc1`: the TGI is above 100 µM.

The subject of the next assay is UACC-257 melanoma. As to the kind of experiment: NCI tumour cell line growth inhibition, 48 h.
As to `CNc1ncnc2c1ncn2C1C=CC(COS(N)(=O)=O)C1` (centres undefined), the TGI was above 100 µM.
The compound `COC1=C(OC)C(=O)C(Cc2c(Cl)nc3sc(C)cn23)=C(C)C1=O` came in with a TGI of 22.8 µM.
On the same count and under the same terms, then `O=C(CN1CCCCC1)Nc1ccc2sc3ccccc3c(=O)c2n1`, with 39.7 µM; and `CC(C)=CCC/C(C)=C/CC/C(C)=C/CC/C(C)=C/C=C/C=C(\C)CC/C=C(\C)CC/C=C(\C)CCC=C(C)C`, with above 100 µM.
Still for that read-out and setting: the value for `C=C(C)C1=CCC[C@]2(C1)N=C(OC)[C@@H](C(C)C)N=C2OC` was above 100 µM.
The compound `CCSc1[nH]c(NC(=S)NC(=O)c2ccccc2Cl)c(C(N)=O)c1C(N)=O` displayed a TGI above 10 µM.
The compound `Clc1ccc(NCc2nnc(CCCCCCCCc3nnc(CNc4ccc(Cl)cc4)o3)o2)cc1` showed a TGI above 100 µM.
In turn, `Cc1nc2ccccc2n1COC(Cn1ccnc1)c1ccc(Cl)cc1Cl` (centres undefined) gave a TGI above 100 µM.
The same measure, in the same setting: then `Cc1cc(=O)[nH]c(-n2[nH]c(C)c(CCO)c2=O)n1`, with above 100 µM; and `COC(=O)[C@@H]1CN(C(C)=O)C(=O)N1`, with above 100 µM.
Take `NN(CC(=O)O)CC(=O)O`: the TGI is above 100 µM.
The compound `O=C([O-])C[n+]1ccccc1` gave a TGI above 100 µM.
